“Also recorded” adds a separate entry of the source.
Assays:
Format in all cases: physicochemical
[1] = BCS (Biopharmaceutics Classification System) designation; settings: listed as Crystalline Form II of Verubecestat
[2] = 4 week open dish accelerated chemical stability of 12 mg tablets, analyzed using HPLC; settings: 40° C./75% RH
Method: To assess the chemical stability of Crystalline Form II of verubecestat in the tablet formulation, a 4 week open dish accelerated stability experiment was performed at a controlled temperature and humidity. Identical measurements were made to Crystalline Form I of verubecestat, which Form I is described in WO2016025364 for comparison. […] At the end of two weeks and of four weeks, tablets were analyzed using HPLC. The data obtained are reported in the following table, where “Hyd1” and “Hyd2” indicate observed degradation product: […]

[3] = Thermodynamic stability by competitive slurry experiments in various solvent systems, resultant form by PXRD; settings: slurried in various solvents for an extended period of time at a controlled temperature
Method: The thermodynamic stability of Crystalline Form II of Verubecestat was assessed using competitive slurry experiments in various solvent systems. Crystalline Form I of Verubecestat, obtained using the procedures set out in WO2016025364, and Crystalline Form II of verubecestat material obtained as described above were slurried in various solvents for an extended period of time and at a controlled temperature. At the end of the experiments, the solvent was removed and the remaining crystalline material were evaluated using Powder X-ray Diffraction (PXRD) to confirm the resultant form.

Row | BCS class [1] | Assay (% LC) ([2]; 2 weeks) | Assay (% LC) ([2]; 4 weeks) | Assay (% LC) ([2]; time point 0) | Degradation Product (%) Hyd1 ([2]; time point 0) | Degradation Product (%) Hyd2 ([2]; time point 0) | Degradation Product (%) Total ([2]; time point 0) | Form remaining after competitive slurry of Form I and Form II (thermodynamic stability) [3] | SMILES
1 | Class I; also recorded: Class 1 | 104.6 | 102.4 | 104.3 | — (“—”means not more than 0.05%) | — (“—”means not more than 0.05%) | — (“—”means not more than 0.05%) | the only form remaining | CN1C(N)=N[C@](C)(c2cc(NC(=O)c3ccc(F)cn3)ccc2F)CS1(=O)=O [Crystalline Form II, N-[3-[(5R)-3-amino-5,6-dihydro-2,5-dimethyl-1,1-dioxido-2H-1,2,4-thiadiazin-5-yl]-4-fluorophenyl]-5-fluoro-2-pyridinecarboxamide]
2 |  | 98.5 | 97.4 | 98.5 | — (“—”means not more than 0.05%) | — (“—”means not more than 0.05%) | — (“—”means not more than 0.05%) |  | CN1C(=N)N[C@](C)(c2cc(NC(=O)c3ccc(F)cn3)ccc2F)CS1(=O)=O [Crystalline Form I, verubecestat, reference compound]
